From PubChem BioAssay AID248 (DTP/NCI, 2004)
“And” between values parts separate entries of the source, which are not always exact repeats. Identical values can stand only once. Toxic doses and inconclusive results are not listed. Cut-off read from the data, not from the text of the source: active = T/C of 150% or more; inactive = T/C below 125%.

System: L1210 leukemia ip in BDF1 mice, survival T/C
Assay: NCI In Vivo Anticancer Drug Screen. Data for tumor model L1210 Leukemia (intraperitoneal) in B6D2F1 (BDF1) mice
Settings: endpoint: mean survival time, higher = longer survival
Method in brief: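 Transplanted-tumor mice were given test agent; controls received vehicle only. Survival readings from the two groups were divided (treated over control).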

[1] = dose: 100.0 mg/kg/injection, schedule: Q04DX003 (ip), vehicle: Klucel (hydroxypropylcellulose) (HPC)
[2] = dose: 200.0 mg/kg/injection, schedule: Q04DX003 (ip), vehicle: Klucel (hydroxypropylcellulose) (HPC)
[3] = dose: 400.0 mg/kg/injection, schedule: Q04DX003 (ip), vehicle: Klucel (hydroxypropylcellulose) (HPC)
[4] = dose: 100.0 mg/kg/injection, schedule: Q04DX002 (ip), vehicle: saline with Tween-80
[5] = dose: 200.0 mg/kg/injection, schedule: Q04DX002 (ip), vehicle: saline with Tween-80
[6] = dose: 25.0 mg/kg/injection, schedule: Q04DX003 (ip), vehicle: Klucel (hydroxypropylcellulose) (HPC)
[7] = dose: 50.0 mg/kg/injection, schedule: Q04DX003 (ip), vehicle: Klucel (hydroxypropylcellulose) (HPC)
[8] = dose: 100.0 mg/kg/injection, schedule: Q01DX001 (ip), vehicle: Klucel (hydroxypropylcellulose) (HPC)
[9] = dose: 200.0 mg/kg/injection, schedule: Q01DX001 (ip), vehicle: Klucel (hydroxypropylcellulose) (HPC)
[10] = dose: 400.0 mg/kg/injection, schedule: Q01DX001 (ip), vehicle: Klucel (hydroxypropylcellulose) (HPC)
[11] = dose: 100.0 mg/kg/injection, schedule: Q01DX001 (ip), vehicle: carboxymethylcellulose (CMC)
[12] = dose: 75.0 mg/kg/injection, schedule: Q01DX001 (ip), vehicle: carboxymethylcellulose (CMC)
[13] = dose: 150.0 mg/kg/injection, schedule: Q01DX001 (ip), vehicle: carboxymethylcellulose (CMC)
[14] = dose: 25.0 mg/kg/injection, schedule: Q04DX003 (ip), vehicle: saline
[15] = dose: 50.0 mg/kg/injection, schedule: Q04DX003 (ip), vehicle: saline
[16] = dose: 100.0 mg/kg/injection, schedule: Q01DX009 (ip), vehicle: saline
[17] = dose: 100.0 mg/kg/injection, schedule: Q04DX003 (ip), vehicle: saline
[18] = dose: 200.0 mg/kg/injection, schedule: Q01DX009 (ip), vehicle: saline
[19] = dose: 200.0 mg/kg/injection, schedule: Q04DX003 (ip), vehicle: saline
[20] = dose: 400.0 mg/kg/injection, schedule: Q04DX003 (ip), vehicle: saline

Measured: T/C

Cc1ccc(S(=O)(=O)OCC2OC(C)(C)OC3C(COS(=O)(=O)c4ccc(C)cc4)OC(C)(C)OC23)cc1 (configuration not stated)
inactive: dose: 100.0 mg/kg/injection, schedule: Q01DX001 (ip), vehicle: saline 99 % of control | dose: 200.0 mg/kg/injection, schedule: Q01DX001 (ip), vehicle: saline 89 % of control | dose: 400.0 mg/kg/injection, schedule: Q01DX001 (ip), vehicle: saline 99 % of control

CCCCCCCCCC(O)CCCC(O)C(O)CCCCCCC(=O)O (configuration not stated)
inactive: dose: 100.0 mg/kg/injection, schedule: Q04DX002 (ip), vehicle: Klucel (hydroxypropylcellulose) (HPC) 91 % of control | dose: 200.0 mg/kg/injection, schedule: Q04DX002 (ip), vehicle: Klucel (hydroxypropylcellulose) (HPC) 91 % of control | dose: 400.0 mg/kg/injection, schedule: Q04DX002 (ip), vehicle: Klucel (hydroxypropylcellulose) (HPC) 91 % of control

CC(C)C1=CC23CCC4C(C)(C(=O)O)CCCC4(C)C2CC13 (configuration not stated)
inactive: dose: 100.0 mg/kg/injection, schedule: Q01DX009 (ip), vehicle: saline with Tween-80 88 % of control | dose: 200.0 mg/kg/injection, schedule: Q01DX009 (ip), vehicle: saline with Tween-80 90 % of control | dose: 400.0 mg/kg/injection, schedule: Q01DX009 (ip), vehicle: saline with Tween-80 91 % of control

CC1=C(O)C(=O)C(c2c(C)cc(C)c(Br)c2C)=C(O)C1=O
inactive: dose: 75.0 mg/kg/injection, schedule: Q01DX009 (ip), vehicle: Klucel (hydroxypropylcellulose) (HPC) 117 % of control

COC(=O)CN(C(=O)c1ccc(OC(C)=O)cc1)c1ccccc1
inactive: [1] 100 % of control | [2] 94 % of control | [3] 96 % of control

CCCCCCCCCCCC(C)(O)CC (configuration not stated)
inactive: dose: 100.0 mg/kg/injection, schedule: Q04DX003 (ip), vehicle: saline with Tween-80 95 % of control | dose: 200.0 mg/kg/injection, schedule: Q04DX003 (ip), vehicle: saline with Tween-80 95 % of control | dose: 400.0 mg/kg/injection, schedule: Q04DX003 (ip), vehicle: saline with Tween-80 101 % of control

Cc1nc2c(ncn2C2OC(CO)C(O)C2O)c(=O)[nH]1 (configuration not stated)
inactive: dose: 100.0 mg/kg/injection, schedule: Q01DX005 (ip), vehicle: saline 103 % of control | dose: 200.0 mg/kg/injection, schedule: Q01DX005 (ip), vehicle: saline 93 % of control

CCOC(=N)C(O)c1ccccc1 (configuration not stated)
inactive: [4] 111 % of control | [5] 100 % of control | dose: 400.0 mg/kg/injection, schedule: Q04DX002 (ip), vehicle: saline with Tween-80 100 % of control

COC(=O)C12c3ccccc3C(c3ccccc31)c1c(N=O)ccc(NO)c12
inactive: [6] 100 % of control | [7] 97 % of control | [8] 99 % of control | [1] 94 % of control | [9] 90 % of control | [2] 102 % of control | [10] 89 % of control | [3] 105 % of control

O=C1CCC(=O)N1c1ccc(Br)cc1
inactive: dose: 50.0 mg/kg/injection, schedule: Q01DX001 (ip), vehicle: carboxymethylcellulose (CMC) 102 % of control | [11] 102 % of control | dose: 200.0 mg/kg/injection, schedule: Q01DX001 (ip), vehicle: carboxymethylcellulose (CMC) 98 % of control | dose: 400.0 mg/kg/injection, schedule: Q01DX001 (ip), vehicle: carboxymethylcellulose (CMC) 98 % of control

Nc1nc(N)c2[nH]c(CO)nc2n1
inactive: [12] 110 % of control | [13] 97 % of control | dose: 300.0 mg/kg/injection, schedule: Q01DX001 (ip), vehicle: carboxymethylcellulose (CMC) 105 % of control

O=C(COc1cc(Cl)c(Cl)cc1Cl)OCCN(CCOC(=O)COc1cc(Cl)c(Cl)cc1Cl)C(=O)COc1ccc(Cl)cc1
inactive: dose: 100.0 mg/kg/injection, schedule: Q01DX009 (ip), vehicle: other 92 % of control | dose: 200.0 mg/kg/injection, schedule: Q01DX009 (ip), vehicle: other 92 % of control | dose: 400.0 mg/kg/injection, schedule: Q01DX009 (ip), vehicle: other 102 % of control

COC(=O)C1(N(C)C)c2ccccc2-c2ccccc21
inactive: [11] 105 % of control

c1ccc2c(c1)CCC1C3CCCC3OCN21 (configuration not stated)
inactive: dose: 50.0 mg/kg/injection, schedule: Q04DX002 (ip), vehicle: saline with Tween-80 101 % of control | [4] 101 % of control | [5] 104 % of control

O=C(O)CCSSc1ccc([N+](=O)[O-])cc1[N+](=O)[O-]
inactive: dose: 12.5 mg/kg/injection, schedule: Q01DX009 (ip), vehicle: Klucel (hydroxypropylcellulose) (HPC) 96 % of control | dose: 12.5 mg/kg/injection, schedule: Q04DX003 (ip), vehicle: Klucel (hydroxypropylcellulose) (HPC) 98 % of control | dose: 25.0 mg/kg/injection, schedule: Q01DX009 (ip), vehicle: Klucel (hydroxypropylcellulose) (HPC) 99 % of control | [6] 107 % of control | [7] 105 % of control

O=S(=O)(Nc1ccc(NS(=O)(=O)c2ccccc2)cc1)c1ccccc1
inactive: dose: 100.0 mg/kg/injection, schedule: Q01DX009 (ip), vehicle: saline sonified 97 % of control | [1] 93 % of control | dose: 200.0 mg/kg/injection, schedule: Q01DX009 (ip), vehicle: saline sonified 104 % of control | [2] 98 % of control | dose: 400.0 mg/kg/injection, schedule: Q01DX009 (ip), vehicle: saline sonified 98 % of control | [3] 90 % of control

COc1cc(C(O)CN)cc(OC)c1OC (configuration not stated)
inactive: dose: 25.0 mg/kg/injection, schedule: Q01DX009 (ip), vehicle: saline 100 % of control | [14] 88 % of control | dose: 50.0 mg/kg/injection, schedule: Q01DX009 (ip), vehicle: saline 94 % of control | [15] 94 % of control | [16] 104 % of control | [17] 88 % of control | [18] 110 % of control | [19] 94 % of control | [20] 91 % of control

NNC(=O)CO
inactive: [16] 108 % of control | [17] 101 % of control | [18] 106 % of control | [19] 97 % of control | dose: 400.0 mg/kg/injection, schedule: Q01DX009 (ip), vehicle: saline 114 % of control | [20] 98 % of control

CC(C)(CNC1CCCC1)OC(=O)c1ccccc1
inactive: dose: 75.0 mg/kg/injection, schedule: Q01DX001 (ip), vehicle: saline 97 % of control and 95 % of control | dose: 150.0 mg/kg/injection, schedule: Q01DX001 (ip), vehicle: saline 107 % of control

O=C(O)CCCCNC(=O)c1ccc([N+](=O)[O-])cc1
inactive: dose: 100.0 mg/kg/injection, schedule: Q01DX001 (ip), vehicle: saline with Tween-80 99 % of control | dose: 200.0 mg/kg/injection, schedule: Q01DX001 (ip), vehicle: saline with Tween-80 94 % of control | dose: 400.0 mg/kg/injection, schedule: Q01DX001 (ip), vehicle: saline with Tween-80 87 % of control

CC(C)=CCC1=C(Cl)C(=O)c2ccccc2C1=O
inactive: [8] 96 % of control | [9] 104 % of control | [10] 101 % of control

BrC1CCCCCCC1Br (configuration not stated)
inactive: [14] 102 % of control | [15] 96 % of control | [17] 91 % of control

OC1CCC2NCCCC2C1 (configuration not stated)
inactive: [12] 101 % of control | [13] 103 % of control
